We go through five compounds from paper PMC9908843 (Angewandte Chemie (International Ed. in English), 2023).

The target in assay [1] is T1, TmGH1 (Thermotoga maritima, UniProt Q08638).
T1 sequence (Q08638 1-446): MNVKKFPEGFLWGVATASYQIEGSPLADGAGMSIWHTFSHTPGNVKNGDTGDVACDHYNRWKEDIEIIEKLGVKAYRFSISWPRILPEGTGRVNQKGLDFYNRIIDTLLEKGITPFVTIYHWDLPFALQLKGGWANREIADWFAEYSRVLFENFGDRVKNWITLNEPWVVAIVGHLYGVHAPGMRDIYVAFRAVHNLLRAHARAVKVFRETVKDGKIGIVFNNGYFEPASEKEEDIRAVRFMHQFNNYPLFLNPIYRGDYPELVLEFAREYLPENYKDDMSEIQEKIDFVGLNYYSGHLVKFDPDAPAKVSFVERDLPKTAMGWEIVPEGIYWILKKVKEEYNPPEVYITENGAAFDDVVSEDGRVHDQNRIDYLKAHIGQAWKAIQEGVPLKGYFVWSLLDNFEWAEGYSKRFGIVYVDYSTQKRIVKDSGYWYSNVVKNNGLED
Conditions: cited from earlier work.

Another assay concerns the target T2, SsGH1 (Saccharolobus solfataricus, UniProt P22498).
T2 sequence (P22498 1-489): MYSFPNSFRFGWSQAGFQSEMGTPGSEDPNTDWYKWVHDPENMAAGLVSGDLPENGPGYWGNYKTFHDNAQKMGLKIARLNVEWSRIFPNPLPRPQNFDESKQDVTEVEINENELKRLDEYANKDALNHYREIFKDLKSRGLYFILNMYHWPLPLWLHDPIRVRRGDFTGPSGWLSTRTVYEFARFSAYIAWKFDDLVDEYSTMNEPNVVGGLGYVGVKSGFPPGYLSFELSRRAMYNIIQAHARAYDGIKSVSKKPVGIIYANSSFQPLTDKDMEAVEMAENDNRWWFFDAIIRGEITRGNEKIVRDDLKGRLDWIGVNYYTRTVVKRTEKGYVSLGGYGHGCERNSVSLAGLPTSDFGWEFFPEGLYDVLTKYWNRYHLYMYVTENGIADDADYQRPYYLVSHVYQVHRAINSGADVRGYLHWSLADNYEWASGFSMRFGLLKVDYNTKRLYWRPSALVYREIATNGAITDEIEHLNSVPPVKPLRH
In words: SsGH1 inhibition. It is filed as biochemical, Sulfolobus solfataricus.

The target of assay [2] is T1, TmGH1. Nature of the assay: TmGH1 inhibition. It is filed as biochemical.
For another assay, the system named is TmGH1, SsGH1 and BtMan2A. It is filed as biochemical. The following applies: 3 vs 4 (TmGH1, SsGH1), 7 vs 8 (BtMan2A).
The target of another assay is T3, BtMan2A (Bacteroides thetaiotaomicron, UniProt Q8AAK6).
T3 sequence (Q8AAK6 26-864): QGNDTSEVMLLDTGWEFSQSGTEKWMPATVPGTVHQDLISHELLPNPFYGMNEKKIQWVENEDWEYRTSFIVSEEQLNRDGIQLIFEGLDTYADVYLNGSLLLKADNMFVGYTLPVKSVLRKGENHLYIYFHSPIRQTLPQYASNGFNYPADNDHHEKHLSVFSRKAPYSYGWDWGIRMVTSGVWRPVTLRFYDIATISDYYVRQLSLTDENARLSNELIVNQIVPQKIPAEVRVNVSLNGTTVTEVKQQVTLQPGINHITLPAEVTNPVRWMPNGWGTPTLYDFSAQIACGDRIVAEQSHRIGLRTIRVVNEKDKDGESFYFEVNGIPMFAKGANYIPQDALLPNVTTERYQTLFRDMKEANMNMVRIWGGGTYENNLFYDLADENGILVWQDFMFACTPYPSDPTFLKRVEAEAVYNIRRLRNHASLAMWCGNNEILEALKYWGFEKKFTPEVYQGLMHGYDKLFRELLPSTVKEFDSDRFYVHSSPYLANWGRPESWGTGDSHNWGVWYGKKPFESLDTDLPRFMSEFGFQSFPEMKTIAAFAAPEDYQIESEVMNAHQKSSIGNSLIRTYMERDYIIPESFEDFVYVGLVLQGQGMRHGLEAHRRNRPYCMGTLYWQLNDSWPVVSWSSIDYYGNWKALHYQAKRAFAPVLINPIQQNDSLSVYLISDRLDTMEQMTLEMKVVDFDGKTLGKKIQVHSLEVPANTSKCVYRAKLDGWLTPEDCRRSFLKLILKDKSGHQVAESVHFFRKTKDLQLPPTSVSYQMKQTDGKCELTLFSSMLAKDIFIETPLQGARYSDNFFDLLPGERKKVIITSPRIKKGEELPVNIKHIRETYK
Nature of the assay: BtMan2A inhibition. It is filed as biochemical. Conditions: ratio of Ki for BtMan2A.

One may read the Ki as the dissociation constant of the complex between target and ligand, obtained from inhibition or displacement.

The structures appear in SMILES notation.

As for `O[C@H]1[C@H](O)[C@@H](O)CN2CC[C@H](O)[C@H]12` [Compound 1, castanospermine], the “Fold better inhibitor than 1-deoxynojirimycin 2” value on TmGH1 [1] is on record as “four‐fold”.

On to `OC[C@H]1NC[C@H](O)[C@@H](O)[C@@H]1O` [Compound 2, 1‐deoxynojirimycin, reference compound], for which the inhibition constant Ki was determined as 3.1 ± 0.2 µM at SsGH1 and 5.4 ± 0.5 µM on TmGH1 [2].

For the compound `C[C@H](O)[C@H]1NC[C@H](O)[C@@H](O)[C@@H]1O.Cl` [Compound 3], in the assay with TmGH1, SsGH1 and BtMan2A, the “Fold better inhibitor than the isosteric compound with the gt conformation” value was “between six‐ and ten‐fold”. The inhibition constant Ki was 17 ± 1 µM at SsGH1 and 16 ± 2 µM at TmGH1 [2].

On to `C[C@@H](O)[C@H]1NC[C@H](O)[C@@H](O)[C@@H]1O` [Compound 4], for which the inhibitory constant (Ki) at SsGH1 is 105 ± 10 µM; at TmGH1 [2], 135 ± 11 µM.

On to `C[C@H](O)[C@H]1NC[C@@H](O)[C@@H](O)[C@@H]1O.Cl` [Compound 7], for which the “Fold better inhibitor than the isosteric compound with the gt conformation” value in the assay with TmGH1, SsGH1 and BtMan2A was “between six‐ and ten‐fold”. At BtMan2A, the “Fold greater potency over 1-deoxymannojirimycin 6” value came out at 27 fold.
